Measured values: patent EP3760185A1, “COSMETIC COMPOSITION TO PREVENT AND DELAY SKIN AGING” (Riccio, Rodolfo, priority 2019, dated 2021)

System: actin
Assay: polymerization of actin (in vitro test)
Assay type: cell-based
Conditions: compared to control
Description: Typically, the selected or purified maltodextrins described herein have the following properties: • a moisturizing and gelling (film-forming) action; • a stimulating action of fibroblasts and keratinocytes proliferation, responsible for the formation of granulation tissue and producers of collagen, elastin, proteoglycans, and other glycoproteins that intervene in the tissue regeneration phase • a skin regenerating action, found with representative in vitro tests such as synthesis of fibronectin, polymerization of actin, expression of enzymes such as Hyaluronan Synthase-2 • a skin protective action following the formation of an epidermal barrier

phosphatidic acid [PA] was tested, and the “polymerization of actin increase” value was 100%.
